Assays:
[1] = tested on: western equine encephalitis virus replicon; experiment: microbe, parasite or virus in culture; assay type: cell-based
Fort Morgan virus (FMV) [2] = tested on: Fort Morgan virus (FMV)
Fort Morgan virus (FMV) [3] = experiment: microbe, parasite or virus in culture; conditions: BE(2)-C, 48 h, read-out: cell viability of FMV-infected cells
Sindbis virus (SINV) = experiment: microbe, parasite or virus in culture; conditions: BE(2)-C, 48 h, read-out: cell viability of SINV-infected cells
Fort Morgan virus (FMV) [4] = assay type: cell-based

Row | SMILES | IC50, dose-response analysis (SAR, figure 4) [1] | selectivity index (CC50/IC50 ratio) [1] | suppression of fLUC expression [1] | other results
1 | O=C(NCc1ccccc1)C1CCN(C(=O)c2cc3sccc3n2Cc2ccc(F)cc2)CC1 [CCG32088] | submicromolar |  |  | 
2 | O=C(NCc1ccco1)C1CCN(C(=O)c2cc3sccc3n2Cc2ccc(F)cc2)CC1 [CCG32091, 1-({4-[(4-fluorophenyl)methyl]-4H-thieno[3,2-b]pyrrol-5-yl}-carbonyl)-N-(furan-2-ylmethyl)piperidine-4-carboxamide] |  | > 20 |  | concentration effectively suppressing FMV-induced cytopathic effect (as low as) (Fort Morgan virus (FMV) [2]): ≤ 3 µmol/L; viability at 12.5 µM (Fort Morgan virus (FMV) [3]): 70%; viability at 12.5 µM (Sindbis virus (SINV)): 50%; suppression of infectious FMV production (Fort Morgan virus (FMV) [4]): > 90%
3 | O=C(NCc1ccco1)C1CCN(C(=O)c2cc3sccc3n2Cc2ccc(Cl)cc2)CC1 [CCG32095] | submicromolar |  |  | 
4 | COc1c(C)c2c(c(O)c1C/C=C(\C)CCC(=O)O)C(=O)OC2 [mycophenolic acid] |  |  | ~ 80% | 
5 | NC(=O)c1ncn([C@@H]2O[C@H](CO)[C@@H](O)[C@H]2O)n1 [ribavirin] |  | 19 | ~ 80% | IC50 ([1]; Western equine encephalitis virus, BSR-T7/5, read-out: IC50, inhibition of fLUC activity): 16 µM

From PMC2788236 (The Journal of infectious diseases, 2009)
